Four molecules from ChEMBL document CHEMBL5465560, “Selectivity Literature for EUbOPEN Chemogenomic Library” (2024) can be followed below.

SMILES strings stand for the structures.

The target in experiment [1] is T1, Serine/threonine-protein kinase 4 (Homo sapiens) (UniProt Q13043).
T1 sequence (whole entry): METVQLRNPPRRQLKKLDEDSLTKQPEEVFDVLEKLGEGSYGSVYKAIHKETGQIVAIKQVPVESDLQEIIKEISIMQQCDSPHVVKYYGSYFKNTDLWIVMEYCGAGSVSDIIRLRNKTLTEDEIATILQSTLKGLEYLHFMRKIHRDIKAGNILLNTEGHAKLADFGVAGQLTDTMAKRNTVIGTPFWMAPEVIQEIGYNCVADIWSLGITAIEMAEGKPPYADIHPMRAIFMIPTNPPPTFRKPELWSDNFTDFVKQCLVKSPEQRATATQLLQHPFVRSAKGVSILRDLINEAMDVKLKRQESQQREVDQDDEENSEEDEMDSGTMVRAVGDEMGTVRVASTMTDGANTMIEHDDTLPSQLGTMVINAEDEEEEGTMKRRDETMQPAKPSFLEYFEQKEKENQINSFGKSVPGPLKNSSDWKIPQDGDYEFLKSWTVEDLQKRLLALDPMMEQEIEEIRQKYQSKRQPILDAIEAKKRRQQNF
The experiment in a line: Selectivity interaction (KinomeScan (DiscoverX)) EUB0001049a STK4. To be noted: at 1 µM.

For experiment [2], the target named is T2, Tyrosine-protein kinase JAK3 (Homo sapiens) (UniProt P52333).
T2 sequence (whole entry): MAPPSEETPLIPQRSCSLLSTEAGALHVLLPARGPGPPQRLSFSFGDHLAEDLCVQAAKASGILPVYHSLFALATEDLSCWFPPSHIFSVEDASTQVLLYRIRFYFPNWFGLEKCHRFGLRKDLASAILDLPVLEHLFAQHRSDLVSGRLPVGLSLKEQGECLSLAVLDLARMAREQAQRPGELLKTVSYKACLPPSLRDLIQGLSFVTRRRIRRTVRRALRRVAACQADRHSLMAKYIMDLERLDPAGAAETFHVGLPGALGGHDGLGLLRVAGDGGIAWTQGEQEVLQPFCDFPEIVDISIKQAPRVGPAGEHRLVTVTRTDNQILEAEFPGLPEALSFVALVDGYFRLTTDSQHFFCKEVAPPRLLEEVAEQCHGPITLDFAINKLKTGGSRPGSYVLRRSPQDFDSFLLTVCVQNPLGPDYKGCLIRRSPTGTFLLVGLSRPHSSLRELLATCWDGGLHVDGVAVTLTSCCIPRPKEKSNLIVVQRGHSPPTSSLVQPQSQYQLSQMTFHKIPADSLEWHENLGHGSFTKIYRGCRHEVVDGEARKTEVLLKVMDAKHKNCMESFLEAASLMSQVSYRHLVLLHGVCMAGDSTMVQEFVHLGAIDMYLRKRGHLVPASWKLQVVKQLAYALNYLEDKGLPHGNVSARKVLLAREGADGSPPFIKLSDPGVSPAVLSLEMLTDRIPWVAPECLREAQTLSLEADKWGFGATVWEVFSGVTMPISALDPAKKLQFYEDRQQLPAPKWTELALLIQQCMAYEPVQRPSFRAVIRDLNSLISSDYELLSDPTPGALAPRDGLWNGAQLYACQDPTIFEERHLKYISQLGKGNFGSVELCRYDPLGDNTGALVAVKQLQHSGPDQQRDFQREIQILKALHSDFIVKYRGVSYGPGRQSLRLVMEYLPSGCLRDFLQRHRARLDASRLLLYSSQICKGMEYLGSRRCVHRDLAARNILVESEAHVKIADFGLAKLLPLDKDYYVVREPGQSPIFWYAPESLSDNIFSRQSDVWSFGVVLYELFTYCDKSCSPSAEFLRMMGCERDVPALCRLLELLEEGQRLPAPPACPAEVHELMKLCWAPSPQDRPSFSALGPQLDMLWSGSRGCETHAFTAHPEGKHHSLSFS
The experiment can be described thus: Selectivity interaction (KinomeScan (DiscoverX)) EUB0000045b JAK3. The conditions noted are these: at 1 µM.

Experiment [3] addresses Death-associated protein kinase 2 (Homo sapiens) (UniProt Q9UIK4). The experiment in a line: Selectivity interaction (KinomeScan (DiscoverX)) EUB0000045b DAPK2.
The target in experiment [4] is T3, Mitogen-activated protein kinase 12 (Homo sapiens) (UniProt P53778).
T3 sequence (whole entry): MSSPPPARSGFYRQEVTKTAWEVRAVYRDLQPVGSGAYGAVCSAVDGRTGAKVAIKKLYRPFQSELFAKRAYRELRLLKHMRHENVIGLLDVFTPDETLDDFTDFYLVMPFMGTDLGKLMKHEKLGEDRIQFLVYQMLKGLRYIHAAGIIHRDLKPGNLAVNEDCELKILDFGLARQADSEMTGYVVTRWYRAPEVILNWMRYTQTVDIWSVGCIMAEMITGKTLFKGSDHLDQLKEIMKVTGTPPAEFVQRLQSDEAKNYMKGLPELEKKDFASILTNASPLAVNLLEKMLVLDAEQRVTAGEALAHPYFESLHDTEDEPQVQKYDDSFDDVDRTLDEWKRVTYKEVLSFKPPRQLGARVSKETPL
The experiment can be described thus: Selectivity interaction (Kinase panel (Z-LYTE Assay)) EUB0001632a MAPK12. To be noted: at 10 µM.

Experiment [5] addresses Mitogen-activated protein kinase 14 (Homo sapiens, UniProt Q16539). The experiment can be described thus: Selectivity interaction (ActivX KiNativ screen (kinase selectivity in THP-1 cell lysates)) EUB0000639a MAPK14. Format: subcellular. The conditions noted are these: lysate.
The target in experiment [6] is T4, Protein kinase C iota type (Homo sapiens) (UniProt P41743).
T4 sequence (whole entry): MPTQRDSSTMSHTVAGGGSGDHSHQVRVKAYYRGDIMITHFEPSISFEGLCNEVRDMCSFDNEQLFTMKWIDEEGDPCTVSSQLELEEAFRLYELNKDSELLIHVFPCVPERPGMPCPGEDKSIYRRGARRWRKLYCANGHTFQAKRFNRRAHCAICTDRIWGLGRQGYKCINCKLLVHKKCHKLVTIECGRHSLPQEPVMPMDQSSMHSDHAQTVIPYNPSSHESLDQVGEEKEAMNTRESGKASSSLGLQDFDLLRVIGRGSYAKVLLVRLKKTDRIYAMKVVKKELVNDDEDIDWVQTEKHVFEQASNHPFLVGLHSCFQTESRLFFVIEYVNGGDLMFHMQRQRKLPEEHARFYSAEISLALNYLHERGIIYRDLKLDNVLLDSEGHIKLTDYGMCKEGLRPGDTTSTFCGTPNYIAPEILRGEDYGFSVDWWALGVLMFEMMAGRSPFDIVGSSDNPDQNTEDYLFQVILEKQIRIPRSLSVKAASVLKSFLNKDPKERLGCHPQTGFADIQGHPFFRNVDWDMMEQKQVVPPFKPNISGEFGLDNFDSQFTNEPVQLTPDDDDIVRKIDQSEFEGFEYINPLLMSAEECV
The experiment in a line: Selectivity interaction (ActivX KiNativ screen (kinase selectivity in THP-1 cell lysates)) EUB0000639a PRKCI. In kind it is subcellular. To be noted: lysate.

Mitogen-activated protein kinase 14, sequence (Q16539 whole entry): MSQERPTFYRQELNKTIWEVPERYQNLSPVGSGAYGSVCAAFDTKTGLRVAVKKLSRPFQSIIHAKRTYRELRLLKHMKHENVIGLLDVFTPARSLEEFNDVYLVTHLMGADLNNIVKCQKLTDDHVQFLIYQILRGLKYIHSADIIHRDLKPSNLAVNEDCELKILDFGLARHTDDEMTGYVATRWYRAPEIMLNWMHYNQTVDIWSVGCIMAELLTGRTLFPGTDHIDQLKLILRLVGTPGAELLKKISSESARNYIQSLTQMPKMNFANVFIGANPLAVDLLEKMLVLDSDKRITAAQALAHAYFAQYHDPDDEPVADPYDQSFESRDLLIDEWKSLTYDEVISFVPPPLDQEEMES
Death-associated protein kinase 2 (Homo sapiens), sequence (Q9UIK4 whole entry, looked up): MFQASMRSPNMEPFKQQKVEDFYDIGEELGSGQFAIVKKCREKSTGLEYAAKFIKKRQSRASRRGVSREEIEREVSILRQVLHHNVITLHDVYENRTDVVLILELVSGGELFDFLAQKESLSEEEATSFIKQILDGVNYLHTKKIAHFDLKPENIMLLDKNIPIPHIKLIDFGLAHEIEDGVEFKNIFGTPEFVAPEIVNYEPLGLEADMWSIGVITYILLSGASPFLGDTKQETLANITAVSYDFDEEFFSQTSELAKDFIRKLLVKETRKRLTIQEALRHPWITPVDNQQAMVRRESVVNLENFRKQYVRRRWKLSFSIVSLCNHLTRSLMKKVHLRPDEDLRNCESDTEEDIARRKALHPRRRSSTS

On to `COc1cc(Nc2nc(C)cc(-c3cnn4nc(OC)ccc34)n2)cc(C(F)(F)F)c1`, for which the % of control in experiment [1] amounted to 85%.

In the case of `C=CC(=O)Nc1cc(-n2c(=O)ccc3cnc4ccc(-c5ccc(NS(C)(=O)=O)cc5)cc4c32)ccc1C`, the % of control is 6.6% in experiment [2], 100% in experiment [3] (at 1 µM) and 94% in experiment [3] (at 10 µM).

Molecule `Cn1cc(-n2cnc3c(NCc4nc5cc(Cl)c(Cl)cc5[nH]4)nc(N4CCOCC4)nc32)cn1` displayed a % of control in experiment [4] of 1.47%.

`CC[C@@H]1[C@H](F)C(=O)N[C@@H]1COc1nccc2cc(C(N)=O)c(OC)cc12` [ZIMLOVISERTIB]: the % of inhibition came out at 0.8% in experiment [5] (at 0.01 µM); 1.1% in experiment [5] (at 0.04 µM); 10.2% in experiment [5] (at 0.2 µM); 10.6% in experiment [5] (at 1 µM); 4.8% in experiment [5] (at 5 µM); 8.5% in experiment [6] (at 0.01 µM). Besides, the % of inhibition in experiment [6] (at 0.04 µM) is -2.3%; in experiment [6] (at 0.2 µM), -7.6%; in experiment [6] (at 1 µM) it was 6.9%; in experiment [6] (at 5 µM), -26.2%.
